Earlier results on 7 compounds are cited in patent US8691198B2, “Environmentally benign plasticizers based on derivatives of acetone” (priority 2010, dated 2014).

Where two headings read alike, the source gives them in different places.

Series [1] relates to rat.
The conditions of series [2]: degradation through oxidation forming phosphoric acid and the corresponding alcohols.

Take `OCC1(O)COC(O)(CO)CO1` (centres unmarked) [1,3-dihydroxyacetone dimer]: the “LD50 (oral, rat)” value in series [1] (oral) is recorded as “sixty thousand”.
With `CCCC(=O)O` [Butyric acid], the “LD50(rat)” value in series [1] (left half of Table 1) is on record as 2940 mg/kg.
Take `CCCCCC(=O)O` [Caproic acid]: in series [1] (right half of Table 1), the “LD50(rat) ×” value is 3000 mg/kg.
Consider `CCCCCCCC(=O)O` [Caprylic acid], for which, in series [1] (in vivo), the “LD50(rat) ×” value is given as 600 mg/kg.
As to `CC(CC(C)(C)C)CP(=O)(O)CC(C)CC(C)(C)C` (centres unmarked) [Cyanex 272, Bis-(2,4,4-trimethylpentyl) phosphinic acid, reference compound], the “LD50(rat)” value in series [1] is 3500 mg/kg. Moreover, the biodegradability entry in series [2] is on record as “biodegradable”.
As for `CCCCCCC(=O)O` [Heptanoic Acid], the “LD50(rat) ×” value in series [1] (right half of Table 1) is 7000 mg/kg.
Take `CCCCC(=O)O` [Pentanoic Acid]: the “LD50(rat)” value in series [1] (in vivo) is 1844 mg/kg.
